Data reported in US5006554A, “Organotin compounds” (The United States of America as represented by the …, priority 1989, dated 1991).

Experiments:
[1] = Degradation on exposure to direct sunlight in quartz tubes (loss of compound after 48 h, GC MS); format: physicochemical; settings: for loss of compound: exposure to direct sunlight, quartz tubes, seawater solutions, after 48 h; for stability in seawater relative to tributyltin bromide, presence of light: in words
Protocol: Degradation tests of the compounds included making ethanol solutions of the organotin bromides that were prepared at a concentration of approximately 1 mg/cm^3. Aliquots of the ethanol solutions were added to either 3.5% sodium bromide (NaBr) containing 1% acetone or to filtered seawater to obtain approximately 1-5 ppm concentrations in the seawater. […] Aliquots (10 cm^3) of the solutions were extracted at timed intervals with 1 cm^3 hexane after acidification with 0.1 cm^3 concentrated hydrochloric acid (HCl). Samples were analyzed by GC MS.
(§1) Half-lives of 33 days, 17 days and 16 days were estimated for tributyltin bromide, tri-3-butenyltin bromide and tri-1-butenyltin bromide in seawater, protected from UV light and held at a constant room temperature.

[2] = Degradation in seawater protected from UV light at constant room temperature (half-life, GC MS); format: physicochemical; settings: for stability in seawater relative to tributyltin bromide, absence of light: in words; for Half-life: protected from UV light, constant room temperature, estimated
Protocol: Degradation tests of the compounds included making ethanol solutions of the organotin bromides that were prepared at a concentration of approximately 1 mg/cm^3. Aliquots of the ethanol solutions were added to either 3.5% sodium bromide (NaBr) containing 1% acetone or to filtered seawater to obtain approximately 1-5 ppm concentrations in the seawater. The sodium bromide (NaBr) solution was placed in 125 cm^3 quartz tubes and exposed to sunlight over 48 h. The seawater solutions were kept in closed 500 cm^3 polycarbonate jars in the laboratory. Aliquots (10 cm^3) of the solutions were extracted at timed intervals with 1 cm^3 hexane after acidification with 0.1 cm^3 concentrated hydrochloric acid (HCl). Samples were analyzed by GC MS.
as §1

[3] = test system: Photobacterium phosphoreum NRRL B-11177; test: Microtox toxicity bioassay: reduction in light output by a luminescent bacterium; format: cell-based; settings: relative to tributyltin bromide, from EC50
Protocol: Relative toxicity of compounds was determined using a Microtox Toxicity Analyzer Model 2055, manufactured by Microbics Corporation, Carlsbad, Calif., USA. This bioassay measures the relative reduction in light output by a luminescent bacterium, Photobacterium phosphoreum NRRL B-11177, when exposed to a toxicant. The bacteria are provided in a convenient freeze-dried form by Microbics Corporation and are immediately activated by the addition of 1 cm^3 of distilled water.
For Microtox testing, stock solutions of the compounds were prepared in 95% ethanol at approximately 1-2 mg/cm^3 Appropriate amounts of the ethanol solutions were added to 2% aqueous sodium chloride (NaCl) to achieve a workable concentration while keeping the ethanol concentration as low as possible. Typically, the ethanol concentration was about 0.05%.
Serial dilutions of each compound for measurement were performed in the Microtox photometer/incubator at 15° C. Controls consist of triplicate 1 cm^3 portions of 2% sodium chloride and candidate toxics were prepared in and subsequently serially diluted in 2% sodium chloride, with a final volume of 1 cm^3 for each dilution. After a 5-minute period for temperature equilibration, 10 μl of rehydrated bacteria was added to each of the controls and the serial dilutions of the test compound. […]

[4] = Stability and chemical reactivity of the butenyltin compounds (neat, in solvents, in reaction mixture); format: physicochemical; settings: for stability / reactivity in the synthesis mixture: crude reaction mixture, synthesis side-products; for stability as neat compound and in inert solvents: inert solvents (also ethanol)
From the text: Synthesis of the tetrabutenyltins presented no great difficulty as long as the Grignard reagent was present in large excess to assure complete alkylation. […] Under these conditions alkenyltin compounds were identified containing various numbers of […] groups in the mixture.
The other two tributenyltin bromides were stable as neat compounds, in inert solvents and in ethanol for a reasonable length of time. Chemical reactivity appeared to follow the order allyl > vinyl > alkyl.

SMILES	loss of compound [1]	stability in seawater relative to tributyltin bromide, presence of light [1]	stability in seawater relative to tributyltin bromide, absence of light [2]	Half-life [2]	factor by which less toxic than tributyltin bromide [3]	stability / reactivity in the synthesis mixture [4]	stability as neat compound and in inert solvents [4]	order of chemical reactivity ([4]; allyl > vinyl > alkyl)	stability / reactivity in the synthesis mixture ([4]; listed as Tri-2-butenyltin bromide)	stability / reactivity in the synthesis mixture ([4]; listed as tri-2butenyltin bromide)	stability sufficient for degradation and toxicity determinations ([4]; in words)
CCC=[CH][Sn]([Br])([CH]=CCC)[CH]=CCC [tri-1-butenyltin bromide]	about 80%	less stable in seawater	less stable in seawater	16 days	about three	tended spontaneously to form black precipitates during solvent evaporation of the crude mixture	stable as neat compounds and in inert solvents	–	–	–	–
CCC[CH2][Sn]([Br])([CH2]CCC)[CH2]CCC [tributyltin bromide, reference compound]	about 15%	–	–	33 days	–	–	–	–	–	–	–
C=CC[CH2][Sn]([Br])([CH2]CC=C)[CH2]CC=C [tri-3-butenyltin bromide]	~100%	less stable in seawater	less stable in seawater	17 days	six	tended spontaneously to form black precipitates during solvent evaporation of the crude mixture	stable as neat compounds and in inert solvents	fell between tri-1-butenyltin bromide, containing vinylic carbons, and tributyltin bromide, the alkyl compound	–	–	–
CC=C[CH2][Sn]([Br])([CH2]C=CC)[CH2]C=CC [tri-2-butenyltin bromide]	–	–	–	–	–	–	–	–	so reactive with the synthesis side-products that it could not be isolated	highly reactive and therefore transient	too reactive for other than structural studies
